Experimental data from patent publication US10800791B2, “Triazole ACC inhibitors and uses thereof” (Gilead Apollo, LLC, priority 2015, dated 2020).
In brackets after ≈: the same amount, converted by molar mass. Read-outs that look alike come from different tables or passages of the source.

Assays:
[1] = test system: Fusarium moniliforme (Fm); test: Growth inhibition assay of fungal pathogens, Fm; format: cell-based; details: for IC90: Fusarium verticillioides, 48 h, read-out: Concentration at 90% Inhibition Fm
Method: (§1) Compounds of the present invention were evaluated in a growth inhibition assay to determine the ability to control the growth of fungal pathogens, such as Botrtyis cinerea (Bc), Collectotrichum graminicola (Cg), Diplodia maydis (Dm), Fusarium moniliforme (Fm), Fusarium virguliforme (Fv), Phytophthora capsici (Pc), Rhizoctonia solani (Rs), and Septoria tritici (St).
(§2) Compounds to be tested were dissolved in DMSO at 2.5 mg/ml to produce compound stock solutions (“stocks”). Stocks were diluted with DMSO by a five-fold dilution in a 96-well stock plate, and two sets of final concentrations of 50, 10, and 2 ppm or 2, 0.4, and 0.08 ppm were obtained in vitro. A set of positive controls was also prepared, with various concentrations of Soraphen (2, 0.4, and 0.08 ppm), Metalaxyl (1.1, 0.22, and 0.04 ppm), and Metconazole (2, 0.4, and 0.08 ppm or 0.2, 0.04, and 0.008 ppm) after the five-fold dilutions. Negative controls on each plate included 2% DMSO, water, and a blank (media+2% DMSO).
(§3) Fungal spores were isolated from previously sub-cultured plates of Botrtyis cinerea (Bc), Collectotrichum graminicola (Cg), Diplodia maydis (Dm), Fusarium moniliforme (Fm), Fusarium virguliforme (Fv), Phytophthora capsici (Pc), and Septoria tritici (St). The isolated spores were diluted to individual concentrations with a 17% V8 liquid media. For Rhizoctonia solani (Rs) and Pythium irregulare, 1.5 mm mycelial plugs were used in place of spores and/4 Potato Dextrose Broth (PDB) was used for dilution. The spore concentrations and plug sizes were based on growth curves generated at 48 hours for each pathogen.
(§4) In a second 96-well plate, the spores or mycelial plugs, media, diluted compound solutions, and controls were combined. Once the compound was added, a true final concentration of compound in each well was measured by an OD600 reading, which adjusted for any compound precipitation that might have occurred in the well. Plate readings were repeated at both 24 and 48 hours. The blank negative control was used as a background subtraction. Additional visual ratings were performed at both 24 and 48 hours for checking on precipitation and confirming efficacy. Visual and OD600 ratings of the compounds at 48 hours were compared to the 2% DMSO negative control, and the percent of pathogen growth inhibition was determined based on those values.

Botrtyis cinerea (Bc) = test: Growth inhibition assay of fungal pathogens, Bc; format: cell-based; details: 48 h
Method: as §1, §2, §3, §4

Diplodia maydis (Dm) = test: Growth inhibition assay of fungal pathogens, Dm; format: cell-based; details: Stenocarpella maydis, 48 h
Method: as §1, §2, §3, §4

human (hACC2) = human (hACC2) (Homo sapiens, UniProt O00763); test: In vitro ACC inhibition assay (ADP-Glo), hACC2; format: biochemical; details: 5 nM ACC2, 20 μM ATP, 20 μM acetyl-CoA
Method: The detailed procedure is as follows. […] 10 μL ADP glo reagent was added. […] 20 μL kinase detection reagent was added.

C. parapsilosis = test: Antifungal Activity Assay (broth microtiter MIC), C. parapsilosis; format: cell-based, Candida parapsilosis; details: for MIC: Lodderomyces parapsilosis, ATCC22019, 48 h
Procedure, shortened: (§5)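 CLSI M27-A3 microdilution; RPMI 1640+MOPS; 2.5×10^3 CFU/mL final inoculum; cultures from Sabouraud dextrose agar, 35° C overnight; compound working solution 128 μg/mL from 1 mg/mL DMSO stock; visual MIC at 48 h vs growth control.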

Septoria tritici (St) = test: Growth inhibition assay of fungal pathogens, St; format: cell-based; details: Zymoseptoria tritici, 48 h
Method: as §1, §2, §3, §4

[2] = test system: Fusarium virguliforme (Fv); test: Growth inhibition assay of fungal pathogens, Fv; format: cell-based; details: 48 h
Method: as §1, §2, §3, §4

[3] = test system: Collectotrichum graminicola (Cg); test: Growth inhibition assay of fungal pathogens, Cg; format: cell-based; details: 48 h
Method: as §1, §2, §3, §4

C. krusei = test: Antifungal Activity Assay (broth microtiter MIC), C. krusei; format: cell-based, Candida krusei; details: for MIC: Pichia kudriavzevii, ATCC6258, 48 h
Procedure, shortened: as §5

fungal (fACC2) = fungal (fACC2) (UniProt Q00955); details: read-out: fACC2 (in vitro ACC2 Inhibition Assay, IC50), ADP-Glo, 5 nM ACC2, 20 μM ATP, 20 μM acetyl-CoA
[4] = test system: Phytophthora capsici (Pc); test: Growth inhibition assay of fungal pathogens, Pc; format: cell-based; details: 48 h
Method: as §1, §2, §3, §4

C. albicans = test: Antifungal Activity Assay (broth microtiter MIC), C. albicans; format: cell-based, Candida albicans; details: for MIC: Candida albicans, ATCC90028, 48 h
Procedure, shortened: as §5

Rhizoctonia solani (Rs) = test: Growth inhibition assay of fungal pathogens, Rs; format: cell-based; details: 48 h
[5] = read-out: Concentration at 90% Inhibition Bc, Botrtyis cinerea, growth inhibition at 48 hours vs 2% DMSO control
[6] = read-out: Concentration at 90% Inhibition Dm, Diplodia maydis, growth inhibition at 48 hours vs 2% DMSO control
[7] = read-out: Concentration at 90% Inhibition St, Septoria tritici, growth inhibition at 48 hours vs 2% DMSO control
[8] = read-out: Concentration at 90% Inhibition Fv, Fusarium virguliforme, growth inhibition at 48 hours vs 2% DMSO control
[9] = read-out: Concentration at 90% Inhibition Cg, Collectotrichum graminicola, growth inhibition at 48 hours vs 2% DMSO control
[10] = read-out: Concentration at 90% Inhibition Pc, Phytophthora capsici, growth inhibition at 48 hours vs 2% DMSO control
[11] = read-out: Concentration at 90% Inhibition Rs, Rhizoctonia solani, mycelial plugs, growth inhibition at 48 hours vs 2% DMSO control
[12] = Fusarium moniliforme, growth inhibition at 48 hours vs 2% DMSO control
[13] = Table 3a, 3 replicates, MIC recorded at 48 h
[14] = Table 3b (additional results), 3 replicates, MIC recorded at 48 h

human (hACC2), sequence (O00763 whole entry): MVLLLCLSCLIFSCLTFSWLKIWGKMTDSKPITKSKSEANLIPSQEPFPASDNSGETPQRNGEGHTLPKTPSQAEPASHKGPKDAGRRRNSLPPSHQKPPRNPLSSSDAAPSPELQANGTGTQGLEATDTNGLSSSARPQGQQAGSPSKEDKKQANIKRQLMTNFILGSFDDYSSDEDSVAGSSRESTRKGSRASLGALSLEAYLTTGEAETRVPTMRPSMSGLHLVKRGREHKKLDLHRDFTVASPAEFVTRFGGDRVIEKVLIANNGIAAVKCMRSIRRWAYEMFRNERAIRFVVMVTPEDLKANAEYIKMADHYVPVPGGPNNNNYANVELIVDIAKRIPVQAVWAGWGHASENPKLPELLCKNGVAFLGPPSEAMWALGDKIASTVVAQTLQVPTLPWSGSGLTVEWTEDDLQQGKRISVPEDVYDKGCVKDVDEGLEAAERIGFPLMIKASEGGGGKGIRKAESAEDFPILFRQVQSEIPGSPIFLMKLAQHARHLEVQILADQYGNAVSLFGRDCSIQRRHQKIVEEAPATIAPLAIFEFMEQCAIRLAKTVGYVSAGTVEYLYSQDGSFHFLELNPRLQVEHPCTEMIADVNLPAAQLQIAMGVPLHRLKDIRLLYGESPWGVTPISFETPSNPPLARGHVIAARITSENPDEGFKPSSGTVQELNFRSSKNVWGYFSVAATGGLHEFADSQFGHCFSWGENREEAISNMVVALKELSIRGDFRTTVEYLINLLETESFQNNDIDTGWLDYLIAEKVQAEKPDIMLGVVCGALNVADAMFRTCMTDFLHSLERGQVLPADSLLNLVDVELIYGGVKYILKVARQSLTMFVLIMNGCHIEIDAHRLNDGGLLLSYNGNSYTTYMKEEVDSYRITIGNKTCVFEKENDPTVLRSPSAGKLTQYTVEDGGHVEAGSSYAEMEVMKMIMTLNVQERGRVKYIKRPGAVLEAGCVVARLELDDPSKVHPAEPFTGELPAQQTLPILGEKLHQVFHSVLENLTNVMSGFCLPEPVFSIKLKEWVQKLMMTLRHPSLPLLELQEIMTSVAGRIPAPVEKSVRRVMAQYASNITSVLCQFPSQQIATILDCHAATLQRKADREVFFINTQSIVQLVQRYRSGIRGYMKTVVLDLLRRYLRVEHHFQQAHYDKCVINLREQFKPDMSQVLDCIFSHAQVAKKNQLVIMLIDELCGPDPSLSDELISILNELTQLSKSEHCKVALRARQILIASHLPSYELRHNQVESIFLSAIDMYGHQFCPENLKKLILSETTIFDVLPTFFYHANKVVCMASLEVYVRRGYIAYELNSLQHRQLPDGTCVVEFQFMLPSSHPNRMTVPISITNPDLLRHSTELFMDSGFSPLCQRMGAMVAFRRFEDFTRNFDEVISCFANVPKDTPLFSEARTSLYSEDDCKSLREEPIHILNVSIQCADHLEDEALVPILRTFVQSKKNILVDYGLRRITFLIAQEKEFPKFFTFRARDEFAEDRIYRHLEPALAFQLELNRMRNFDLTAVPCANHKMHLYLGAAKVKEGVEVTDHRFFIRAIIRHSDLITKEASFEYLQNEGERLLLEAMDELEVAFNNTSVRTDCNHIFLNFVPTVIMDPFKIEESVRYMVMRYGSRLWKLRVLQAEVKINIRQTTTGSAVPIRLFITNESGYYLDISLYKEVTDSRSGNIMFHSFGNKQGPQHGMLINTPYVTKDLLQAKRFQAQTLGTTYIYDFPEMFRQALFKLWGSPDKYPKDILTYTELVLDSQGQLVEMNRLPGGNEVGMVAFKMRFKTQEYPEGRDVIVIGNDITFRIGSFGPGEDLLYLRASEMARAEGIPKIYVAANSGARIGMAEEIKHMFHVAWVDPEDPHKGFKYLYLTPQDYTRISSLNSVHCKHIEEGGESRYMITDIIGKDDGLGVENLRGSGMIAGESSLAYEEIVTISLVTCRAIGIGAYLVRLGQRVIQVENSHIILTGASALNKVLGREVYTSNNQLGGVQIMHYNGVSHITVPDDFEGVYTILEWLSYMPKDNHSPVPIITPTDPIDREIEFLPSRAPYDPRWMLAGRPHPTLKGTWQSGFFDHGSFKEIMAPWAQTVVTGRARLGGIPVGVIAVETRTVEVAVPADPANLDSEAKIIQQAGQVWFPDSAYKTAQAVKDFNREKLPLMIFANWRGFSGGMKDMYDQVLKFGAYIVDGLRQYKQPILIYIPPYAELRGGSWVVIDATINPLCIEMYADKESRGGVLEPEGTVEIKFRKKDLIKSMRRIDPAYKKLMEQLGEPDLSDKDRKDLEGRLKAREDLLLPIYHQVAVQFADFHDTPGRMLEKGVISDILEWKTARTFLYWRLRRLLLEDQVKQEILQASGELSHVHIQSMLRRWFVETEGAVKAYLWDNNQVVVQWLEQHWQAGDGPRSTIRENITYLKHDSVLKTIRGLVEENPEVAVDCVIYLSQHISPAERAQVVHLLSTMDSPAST
fungal (fACC2), sequence (Q00955 whole entry): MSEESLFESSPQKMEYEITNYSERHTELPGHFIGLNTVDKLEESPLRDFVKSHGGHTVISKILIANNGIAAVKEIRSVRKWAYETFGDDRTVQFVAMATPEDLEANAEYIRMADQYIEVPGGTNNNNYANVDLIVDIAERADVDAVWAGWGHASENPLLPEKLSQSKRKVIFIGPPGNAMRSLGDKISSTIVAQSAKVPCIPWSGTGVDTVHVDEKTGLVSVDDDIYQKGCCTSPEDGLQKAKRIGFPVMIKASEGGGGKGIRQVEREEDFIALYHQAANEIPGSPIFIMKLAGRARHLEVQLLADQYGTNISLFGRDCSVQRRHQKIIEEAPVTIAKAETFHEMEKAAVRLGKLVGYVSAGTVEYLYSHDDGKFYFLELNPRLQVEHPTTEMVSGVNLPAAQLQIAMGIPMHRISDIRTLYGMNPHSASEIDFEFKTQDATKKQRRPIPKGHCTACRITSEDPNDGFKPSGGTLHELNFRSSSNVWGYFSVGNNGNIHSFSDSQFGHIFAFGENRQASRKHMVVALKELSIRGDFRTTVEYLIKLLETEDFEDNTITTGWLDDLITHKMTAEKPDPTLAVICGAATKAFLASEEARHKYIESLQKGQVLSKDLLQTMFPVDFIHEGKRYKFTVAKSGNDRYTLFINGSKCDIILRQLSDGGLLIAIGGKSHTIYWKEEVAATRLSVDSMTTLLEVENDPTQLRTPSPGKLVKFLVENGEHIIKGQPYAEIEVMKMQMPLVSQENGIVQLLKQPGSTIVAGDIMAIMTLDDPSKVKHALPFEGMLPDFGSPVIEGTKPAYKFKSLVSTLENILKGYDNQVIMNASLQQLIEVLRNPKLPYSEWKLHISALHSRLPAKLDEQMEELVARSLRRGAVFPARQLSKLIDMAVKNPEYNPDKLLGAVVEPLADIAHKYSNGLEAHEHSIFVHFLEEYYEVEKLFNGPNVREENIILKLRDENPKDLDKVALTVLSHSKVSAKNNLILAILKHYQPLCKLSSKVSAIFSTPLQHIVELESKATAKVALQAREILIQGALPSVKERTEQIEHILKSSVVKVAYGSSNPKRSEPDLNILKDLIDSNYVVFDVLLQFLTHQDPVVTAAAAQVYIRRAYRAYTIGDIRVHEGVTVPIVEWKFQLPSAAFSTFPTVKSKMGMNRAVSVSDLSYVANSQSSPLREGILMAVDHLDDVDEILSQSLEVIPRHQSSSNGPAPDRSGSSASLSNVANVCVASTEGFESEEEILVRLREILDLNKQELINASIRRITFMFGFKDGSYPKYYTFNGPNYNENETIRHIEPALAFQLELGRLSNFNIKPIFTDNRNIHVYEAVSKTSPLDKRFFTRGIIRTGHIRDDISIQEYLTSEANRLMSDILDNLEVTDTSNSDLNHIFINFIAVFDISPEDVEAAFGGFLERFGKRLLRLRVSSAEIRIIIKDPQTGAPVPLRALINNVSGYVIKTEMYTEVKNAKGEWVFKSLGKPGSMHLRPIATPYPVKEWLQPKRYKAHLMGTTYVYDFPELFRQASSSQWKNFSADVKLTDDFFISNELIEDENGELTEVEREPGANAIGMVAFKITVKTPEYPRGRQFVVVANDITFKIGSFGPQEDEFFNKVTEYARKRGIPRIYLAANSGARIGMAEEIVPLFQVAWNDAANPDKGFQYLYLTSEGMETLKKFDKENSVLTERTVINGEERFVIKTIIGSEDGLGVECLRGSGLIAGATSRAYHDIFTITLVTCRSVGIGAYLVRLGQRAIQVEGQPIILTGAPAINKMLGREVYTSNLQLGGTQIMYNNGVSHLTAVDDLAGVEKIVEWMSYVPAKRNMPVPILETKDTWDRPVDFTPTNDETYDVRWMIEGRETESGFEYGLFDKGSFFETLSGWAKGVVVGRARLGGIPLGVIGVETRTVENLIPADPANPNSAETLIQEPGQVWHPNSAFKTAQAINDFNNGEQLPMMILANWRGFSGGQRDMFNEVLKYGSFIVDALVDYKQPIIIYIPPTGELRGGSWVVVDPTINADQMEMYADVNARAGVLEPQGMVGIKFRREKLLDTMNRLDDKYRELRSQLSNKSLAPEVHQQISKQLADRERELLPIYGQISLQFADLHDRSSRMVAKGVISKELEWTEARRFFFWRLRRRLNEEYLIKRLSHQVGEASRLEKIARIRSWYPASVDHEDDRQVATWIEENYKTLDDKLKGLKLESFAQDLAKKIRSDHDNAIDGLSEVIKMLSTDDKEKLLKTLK

Compound: COc1ccc(F)cc1[C@@H](CCCO)Cn1c(=O)n(C(C)(C)C(=O)NC(C)C)c(=O)c2c(C)c(-n3nccn3)sc21 [Compound I-267]
- IC90 [1]: 2 µg/mL (≈ 3.41 µM)
- IC90 (Botrtyis cinerea (Bc); [5]): > 50 µg/mL
- IC90 (Diplodia maydis (Dm); [6]): > 50 µg/mL
- IC50 (human (hACC2); Table 2b, additional results): > 40 nM
- MIC (C. parapsilosis; read-out: MIC, C. parapsilosis ATCC 22019, Table 3b (additional results), 3 replicates, MIC recorded at 48 h): 0.25 to 1 µg/mL (≈ 0.426 to 1.7 µM)
- IC90 (Septoria tritici (St); [7]): > 50 µg/mL
- IC90 [2, 8]: 10 µg/mL (≈ 17 µM)
- IC90 [3, 9]: > 50 µg/mL
- MIC (C. krusei; read-out: MIC, C. krusei ATCC 6258, Table 3b (additional results), 3 replicates, MIC recorded at 48 h): 0.06 to 0.249 µg/mL (≈ 0.102 to 0.424 µM)
- IC50 (fungal (fACC2); Table 2b, additional results): 1 to 5 nM
- IC90 [4, 10]: > 50 µg/mL
- MIC (C. albicans; read-out: MIC, C. albicans ATCC 90028, Table 3b (additional results), 3 replicates, MIC recorded at 48 h): 0.25 to 1 µg/mL (≈ 0.426 to 1.7 µM)
- IC90 (Rhizoctonia solani (Rs); [11]): > 50 µg/mL

Compound: COCCO[C@@H](Cn1c(=O)n([C@@H](C)C(=O)NC(C)C)c(=O)c2c(C)c(-n3nccn3)sc21)c1cc(F)ccc1OC [Compound I-66, (S)-2-(1-((R)-2-(5-fluoro-2-methoxyphenyl)-2-(2-methoxy-ethoxy)ethyl)-5-methyl-2,4-dioxo-6-(2H-1,2,3-triazol-2-yl)-1,4-dihydrothieno[2,3-d]pyrimidin-3(2H)-yl)-N-isopropylpropanamide]
- Concentration at 90% Inhibition Fm [1, 12]: AA (compound concentration of 0.08 ppm at 90% inhibition of fungal pathogens)
- IC90 [1]: 0.08 µg/mL (≈ 0.136 µM)
- IC90 (Botrtyis cinerea (Bc); [5]): 2 µg/mL (≈ 3.4 µM)
- IC90 (Botrtyis cinerea (Bc); read-out: Concentration at 90% Inhibition Bc, Botrtyis cinerea, growth inhibition vs 2% DMSO control at 48 hours): 2 µg/mL (≈ 3.4 µM)
- IC90 (Diplodia maydis (Dm); [6]): 0.4 µg/mL (≈ 0.68 µM)
- IC90 (Diplodia maydis (Dm); read-out: Concentration at 90% Inhibition Dm, Diplodia maydis, growth inhibition vs 2% DMSO control at 48 hours): 0.4 µg/mL (≈ 0.68 µM)
- IC50 (human (hACC2); Table 2a): 5 to 10 nM
- IC50 (human (hACC2); Table 2b, additional results): 5 to 10 nM
- MIC, C. parapsilosis ATCC 22019 (C. parapsilosis; [13]): B (MIC of 1.1-2.0 μg/mL)
- MIC, C. parapsilosis ATCC 22019 (C. parapsilosis; [14]): B (MIC of 1.01-2.0 μg/mL)
- IC90 (Septoria tritici (St); [7]): > 50 µg/mL
- IC90 (Septoria tritici (St); read-out: Concentration at 90% Inhibition St, Septoria tritici, growth inhibition vs 2% DMSO control at 48 hours): > 50 µg/mL
- IC90 [2, 8]: 0.4 µg/mL (≈ 0.68 µM)
- IC90 ([2]; read-out: Concentration at 90% Inhibition Fv, Fusarium virguliforme, growth inhibition vs 2% DMSO control at 48 hours): 0.4 µg/mL (≈ 0.68 µM)
- IC90 [3, 9]: 0.4 µg/mL (≈ 0.68 µM)
- IC90 ([3]; read-out: Concentration at 90% Inhibition Cg, Collectotrichum graminicola, growth inhibition vs 2% DMSO control at 48 hours): 0.4 µg/mL (≈ 0.68 µM)
- MIC, C. krusei ATCC 6258 (C. krusei; [13]): B (MIC of 1.1-2.0 μg/mL)
- MIC, C. krusei ATCC 6258 (C. krusei; [14]): C (MIC of 2.01-4.0 μg/mL)
- IC50 (fungal (fACC2); Table 2a): 1 to 5 nM
- IC50 (fungal (fACC2); Table 2b, additional results): 1 to 5 nM
- IC90 [4, 10]: 10 µg/mL (≈ 17 µM)
- IC90 ([4]; read-out: Concentration at 90% Inhibition Pc, Phytophthora capsici, growth inhibition vs 2% DMSO control at 48 hours): > 50 µg/mL
- MIC, C. albicans ATCC 90028 (C. albicans; [13]): C (MIC of 2.1-4.0 μg/mL)
- MIC, C. albicans ATCC 90028 (C. albicans; [14]): D (MIC of >4.01 μg/mL)
- IC90 (Rhizoctonia solani (Rs); [11]): 0.4 µg/mL (≈ 0.68 µM)
- IC90 (Rhizoctonia solani (Rs); read-out: Concentration at 90% Inhibition Rs, Rhizoctonia solani, mycelial plugs, growth inhibition vs 2% DMSO control at 48 hours): 0.08 µg/mL (≈ 0.136 µM)

Compound: COc1ccc(F)cc1[C@H](Cn1c(=O)n(C(C)(C)C(=O)NC(C)C)c(=O)c2c(C)c(-n3nccn3)sc21)O[C@H]1C[C@@H](O)C1 [Compound I-239]
- IC90 [1, 12]: 0.08 µg/mL (≈ 0.13 µM)
- IC90 (Botrtyis cinerea (Bc); Botrtyis cinerea, growth inhibition at 48 hours vs 2% DMSO control, read-out: Concentration at 90% Inhibition Bc): 2 µg/mL (≈ 3.25 µM)
- IC90 (Diplodia maydis (Dm); Diplodia maydis, growth inhibition at 48 hours vs 2% DMSO control, read-out: Concentration at 90% Inhibition Dm): 2 µg/mL (≈ 3.25 µM)
- IC50 (human (hACC2); Table 2b, additional results): 10 to 40 nM
- MIC (C. parapsilosis; Table 3b (additional results), ATCC 22019, 3 replicates, MIC recorded at 48 h, read-out: MIC, C. parapsilosis ATCC 22019): 0.25 to 1 µg/mL (≈ 0.407 to 1.63 µM)
- IC90 (Septoria tritici (St); Septoria tritici, growth inhibition at 48 hours vs 2% DMSO control, read-out: Concentration at 90% Inhibition St): > 50 µg/mL
- IC90 ([2]; growth inhibition at 48 hours vs 2% DMSO control, read-out: Concentration at 90% Inhibition Fv): 0.4 µg/mL (≈ 0.651 µM)
- IC90 ([3]; Collectotrichum graminicola, growth inhibition at 48 hours vs 2% DMSO control, read-out: Concentration at 90% Inhibition Cg): 2 µg/mL (≈ 3.25 µM)
- MIC (C. krusei; Table 3b (additional results), ATCC 6258, 3 replicates, MIC recorded at 48 h, read-out: MIC, C. krusei ATCC 6258): 0.25 to 1 µg/mL (≈ 0.407 to 1.63 µM)
- IC50 (fungal (fACC2); Table 2b, additional results): 1 to 5 nM
- IC90 ([4]; growth inhibition at 48 hours vs 2% DMSO control, read-out: Concentration at 90% Inhibition Pc): > 50 µg/mL
- MIC (C. albicans; Table 3b (additional results), ATCC 90028, 3 replicates, MIC recorded at 48 h, read-out: MIC, C. albicans ATCC 90028): 0.25 to 1 µg/mL (≈ 0.407 to 1.63 µM)
- IC90 (Rhizoctonia solani (Rs); mycelial plugs, growth inhibition at 48 hours vs 2% DMSO control, read-out: Concentration at 90% Inhibition Rs): 0.08 µg/mL (≈ 0.13 µM)
